The results in this text go back to patent US20250177396A1, “POLO-LIKE KINASE 4 (PLK4) INHIBITORS, PHARMACEUTICAL COMPOSITIONS, METHODS OF PREPARATION AND USES THEREOF” (Repare Therapeutics Inc., priority 2022, published 2025).

Broadly, the IC50 is the concentration that inhibits the measured activity by half. A low value points to greater potency in that assay.

The target in the assay is T1, PLK4 (Homo sapiens, UniProt O00444).
T1 construct: expressed in transfected cells; host or cells: HEK293 T cells (ATCC CRL-3216)
T1 sequence (O00444 1-970): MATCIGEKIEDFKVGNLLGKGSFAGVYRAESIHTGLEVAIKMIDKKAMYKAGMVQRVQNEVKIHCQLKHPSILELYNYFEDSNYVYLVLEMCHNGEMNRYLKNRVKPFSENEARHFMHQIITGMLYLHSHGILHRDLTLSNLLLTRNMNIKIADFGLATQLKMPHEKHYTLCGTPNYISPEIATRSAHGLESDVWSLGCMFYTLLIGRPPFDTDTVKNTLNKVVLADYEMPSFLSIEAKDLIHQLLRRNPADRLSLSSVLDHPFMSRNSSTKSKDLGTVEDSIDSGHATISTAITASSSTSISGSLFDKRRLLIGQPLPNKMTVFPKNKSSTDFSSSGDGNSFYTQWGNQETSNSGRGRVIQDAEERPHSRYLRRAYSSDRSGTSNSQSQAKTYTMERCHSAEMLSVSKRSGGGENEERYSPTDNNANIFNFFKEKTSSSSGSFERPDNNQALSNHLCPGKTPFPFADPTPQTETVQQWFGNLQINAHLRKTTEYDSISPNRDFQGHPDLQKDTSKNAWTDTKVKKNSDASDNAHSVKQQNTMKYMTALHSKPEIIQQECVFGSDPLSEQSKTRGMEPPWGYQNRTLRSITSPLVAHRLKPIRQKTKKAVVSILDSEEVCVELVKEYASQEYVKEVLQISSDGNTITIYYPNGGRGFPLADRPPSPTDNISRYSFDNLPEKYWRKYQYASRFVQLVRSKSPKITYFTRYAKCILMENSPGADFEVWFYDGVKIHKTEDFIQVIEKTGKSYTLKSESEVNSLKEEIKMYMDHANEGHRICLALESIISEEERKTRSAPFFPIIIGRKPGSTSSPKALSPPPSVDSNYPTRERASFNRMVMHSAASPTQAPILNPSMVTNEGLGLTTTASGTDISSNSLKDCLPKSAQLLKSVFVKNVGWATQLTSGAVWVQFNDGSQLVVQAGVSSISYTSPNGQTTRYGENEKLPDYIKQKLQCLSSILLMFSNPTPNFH
Description: PLK4 NanoBRET target engagement assay. The format is binding. As to conditions: HEK293 T cells transfected with PLK4 NanoLuc fusion vector; K-5 tracer; 2 hrs incubation. The procedure:
To determine the affinity of Compounds described herein in the PLK4 NanoBRET target engagement assay, HEK293 T cells (ATCC Product Number CRL-3216) are first transfected with the PLK4 NanoLuc fusion vector DNA and Transfection carrier DNA using the Fugene HD Transfection reagent in Opti-MEM No Phenol Red buffer. After an overnight incubation in a 37° C./5% CO2 incubator, the transfected HEK293 T cells are trypsinized, counted, and resuspended in Opti-MEM No Phenol Red buffer at a concentration of 200000 cells/mL. White 96-well plates are then plated with 85 μL of cells (17000 cells/well) to which 5 μL of the 20×K-5 tracer solution diluted in tracer dilution buffer is added. Finally, 10 μL of the 10× compounds are added and the plates and then incubated in a 37° C./5% CO2 incubator for 2 hrs. After the incubation, a 50 uL 3× solution of the substrate/inhibitor mix is added to the cells. The plate is then transferred in the Envision plate reader where the Acceptor emission (610 nm) and the Donor emission (450 nm) are measured.
The IC50 of compounds is determined as follows: • 1. The ratio between the Acceptor emission (610 nm)/Donor emission (450 nm) is calculated. • 2. This ratio is then multiplied by 1000 to obtain the mBRET units (multiplying by 1000 is an arbitrary step that simply makes the data easier to interpret; it has no impact on the data set itself) • 3. The mBRET units are then used in Scigilian Analyze software (https://analyze.scigilian.io) to determine the IC50 value using a 4-parameter fit analysis.
Background: BRET reads energy transfer from a luciferase to a nearby fluorophore.

As for `COc1c(Nc2cc(C)[nH]n2)nc(Oc2ccc(NS(C)(=O)=O)cc2)nc1-c1cnn(C)c1` [Compound 32], the half-inhibitory concentration (IC50) is 2800 nM.

As for `COc1c(Nc2cc(C)[nH]n2)nc(Oc2ccc(S(C)(=O)=O)cc2Br)nc1-c1cnn(C)c1` [Compound 33], the IC50 worked out at 1100 nM.

Consider `COc1c(Nc2cc(C)[nH]n2)nc(Oc2ccc(S(C)(=O)=O)cc2Cl)nc1-c1cnn(C)c1` [Compound 34], for which the IC50 worked out at 900 nM.

As to `COc1c(Nc2cc(C)[nH]n2)nc(Oc2ccc(Br)c(C#N)c2)nc1-c1cnn(C)c1` [Compound 36], the IC50 was 7000 nM.

Take `COc1c(Nc2cc(C)[nH]n2)nc(Nc2ccc(S(C)(=O)=O)cc2)nc1-c1cnn(C)c1` [Compound 37]: half-maximal inhibition (IC50) was put at 550 nM.

For `Cc1cc(Nc2nc(N(C)c3c(F)cc(S(C)(=O)=O)cc3F)nc(-c3cn[nH]c3)c2C2CC2)n[nH]1` [Compound 40], the IC50 amounted to 10 nM.

Take `COc1c(Nc2cc(C)[nH]n2)nc(N(C(C)=O)c2ccc(S(C)(=O)=O)cc2F)nc1-c1cnn(C)c1` [Compound 41]: the 50% inhibitory concentration (IC50) worked out at 680 nM.

For `Cc1cc(Nc2nc(N(C)c3ccc(S(C)(=O)=O)cc3F)nc(-c3cnn(C)c3)c2C)n[nH]1` [Compound 42], the midpoint of inhibition, the IC50, lay at 14 nM.

In the case of `Cc1cc(Nc2nc(N(C)c3ccc(S(C)(=O)=O)cc3F)nc(-c3cnnn3C)c2C2CC2)n[nH]1` [Compound 43], the IC50 was determined as 180 nM.

With `Cc1cc(Nc2nc(N(C)c3ccc(S(C)(=O)=O)cc3F)nc(-c3ncc(C)s3)c2C2CC2)n[nH]1` [Compound 44], the half-maximal inhibitory concentration (IC50) was determined as 240 nM.

As to `Cc1csc(-c2nc(N(C)c3ccc(S(C)(=O)=O)cc3F)nc(Nc3cc(C)[nH]n3)c2C2CC2)n1` [Compound 45], inhibition was half-maximal at 140 nM (IC50).

On to `COc1c(Nc2cc(C)[nH]n2)nc(N(C)c2ccc(CN3CCOC3=O)cc2)nc1-c1cnn(C)c1` [Compound 46], for which the IC50 was determined as 110 nM.

Consider `COc1c(Nc2cc(C)[nH]n2)nc(N(C)c2ccc(CS(C)(=O)=O)cc2)nc1-c1cnn(C)c1` [Compound 47], for which it took 2300 nM to reach half-maximal inhibition (IC50).

On to `Cc1cc(Nc2nc(N(C)c3ccc(S(C)(=O)=O)cc3Cl)nc(-c3ccn(C)n3)c2C2CC2)n[nH]1` [Compound 48], for which the IC50 was found to be 50 nM.

In turn, `COc1c(Nc2cc(C)[nH]n2)nc(N(C)c2ccc(S(C)(=O)=O)c(F)c2F)nc1-c1cnn(C)c1` [Compound 49] yielded an IC50 of 54 nM.

Consider `COc1c(Nc2cc(C)[nH]n2)nc(N(C)c2ccc(CN(C(C)=O)c3ccccc3)cc2F)nc1-c1cnn(C)c1` [Compound 50], for which the IC50 is 770 nM.

`CCCS(=O)(=O)c1ccc(N(C)c2nc(Nc3cc(C)[nH]n3)c(OC)c(-c3cnn(C)c3)n2)cc1` [Compound 51] had a half-maximal inhibitory concentration (IC50) of 220 nM.

The molecule `COc1c(Nc2cc(C)[nH]n2)nc(N(C)c2ccc(CN(C)C(=O)c3ccccc3)cc2F)nc1-c1cnn(C)c1` [Compound 52] had an IC50 of 290 nM.

Molecule `Cc1cc(Nc2nc(N(C)c3ccc(S(C)(=O)=O)cc3Br)nc(-c3cnn(C)c3)c2C2CC2)n[nH]1` [Compound 53] displayed an IC50 of 63 nM.

In turn, `COc1c(Nc2cc(C)[nH]n2)nc(N(C)c2ccc(S(C)(=O)=O)nc2C)nc1-c1cnn(C)c1` [Compound 54] returned a half-inhibitory concentration (IC50) of 2100 nM.

The molecule `COc1c(Nc2cc(C)[nH]n2)nc(N(C)c2ccc(S(=O)(=O)CC(C)C)cc2)nc1-c1cnn(C)c1` [Compound 55] returned an IC50 of 320 nM.

Molecule `Cc1cc(Nc2nc(N(C)c3ccc(S(C)(=O)=O)cc3C)nc(-c3cnn(C)c3)c2C2CC2)n[nH]1` [Compound 56] displayed an IC50 of 130 nM.

Molecule `COc1c(Nc2cc(C)[nH]n2)nc(N(C)c2ccc(S(C)(=O)=O)nc2)nc1-c1cnn(C)c1` [Compound 58] yielded an IC50 of 1100 nM.

For `COc1c(Nc2cc(C)[nH]n2)nc(N(C)c2ccc(-c3ccnn3C)cc2)nc1-c1cnn(C)c1` [Compound 59], inhibition was half-maximal at 280 nM (IC50).

As to `Cc1cc(Nc2nc(N(C)c3ccc(S(C)(=O)=O)cc3F)nc(-c3ccn(C)n3)c2C(C)C)n[nH]1` [Compound 60], the IC50 was over 5000 nM.

Molecule `COc1c(Nc2cc(C)[nH]n2)nc(N(C)c2ccc(C(C)(C)C#N)cc2)nc1-c1cnn(C)c1` [Compound 61] gave an IC50 of 100 nM.

In turn, `Cc1cc(Nc2nc(N(C)c3ccc(S(C)(=O)=O)cc3F)nc(-c3cnn(C4CN(S(C)(=O)=O)C4)c3)c2C2CC2)n[nH]1` [Compound 62] returned an IC50 of 28 nM.

Turning to `COc1c(Nc2cc(C)[nH]n2)nc(N(C)c2ccc(C#N)cc2F)nc1-c1cnn(C)c1` [Compound 63], the IC50 was 280 nM.

Take `COc1c(Nc2cc(C)[nH]n2)nc(N(C)c2ccc(Cn3ccnc3)cc2F)nc1-c1cnn(C)c1` [Compound 64]: the IC50 turned out to be 59 nM.

Consider `COc1c(Nc2cc(C)[nH]n2)nc(N(C)c2cc3c(cc2F)OCO3)nc1-c1cnn(C)c1` [Compound 65], for which the IC50 came out at 820 nM.

`COCCCS(=O)(=O)c1ccc(N(C)c2nc(Nc3cc(C)[nH]n3)c(OC)c(-c3cnn(C)c3)n2)cc1` [Compound 67] yielded an IC50 of 270 nM.

The molecule `COc1c(Nc2cc(C)[nH]n2)nc(N(C)c2ccc3c(c2)CCS3(=O)=O)nc1-c1cnn(C)c1` [Compound 68] showed an IC50 of 1000 nM.

`COc1c(Nc2cc(C)[nH]n2)nc(N(C)c2ccc(Oc3nccs3)cc2)nc1-c1cnn(C)c1` [Compound 69]: it took 700 nM to reach half-maximal inhibition (IC50).

As to `CCS(=O)(=O)c1ccc(N(C)c2nc(Nc3cc(C)[nH]n3)c(OC)c(-c3cnn(C)c3)n2)cc1` [Compound 70], the IC50 was determined as 170 nM.

As for `COc1c(Nc2cc(C)[nH]n2)nc(N(C)c2cccc(C(=O)N(C)C)c2F)nc1-c1cnn(C)c1` [Compound 71], the half-inhibitory concentration (IC50) worked out at 740 nM.

`COc1c(Nc2cc(C)[nH]n2)nc(N(C)c2ccc(-c3nnc(C)o3)cc2)nc1-c1cnn(C)c1` [Compound 72] had an IC50 of 820 nM.

As to `COc1ccc(F)c(N(C)c2nc(Nc3cc(C)[nH]n3)c(OC)c(-c3cnn(C)c3)n2)c1` [Compound 74], the IC50 was 1200 nM.

As for `COc1c(Nc2cc(C)[nH]n2)nc(N(C)c2ccc(Br)cc2F)nc1-c1cnn(C)c1` [Compound 75], the IC50 came out at 600 nM.

In turn, `COc1c(Nc2cc(C)[nH]n2)nc(N(C)c2ccc(S(=O)(=O)C(C)(C)C)cc2F)nc1-c1cnn(C)c1` [Compound 76] showed an IC50 of 46 nM.

For `COc1c(Nc2cc(C)[nH]n2)nc(N(CCN(C)C)c2ccc(S(C)(=O)=O)cc2F)nc1-c1cnn(C)c1` [Compound 77], the IC50 was 580 nM.

With `COc1c(Nc2cc(C)[nH]n2)nc(N(C)c2cccc(S(C)(=O)=O)c2)nc1-c1cnn(C)c1` [Compound 78], 4500 nM corresponded to half-maximal inhibition (IC50).

Molecule `COc1c(Nc2cc(C)[nH]n2)nc(N(C)c2ccc([S+](C)[O-])cc2)nc1-c1cnn(C)c1` (stereo not drawn) [Compound 79] came in with an IC50 of 2300 nM.

In turn, `COc1c(Nc2cc(C)[nH]n2)nc(N(C)c2ccc(-c3nccs3)cc2)nc1-c1cnn(C)c1` [Compound 80] returned an IC50 of 910 nM.

For `Cc1cc(Nc2nc(N(C)c3ccc(S(=O)(=O)C(C)C)cc3)nc(-c3cnn(C)c3)c2C2CC2)n[nH]1` [Compound 81], the IC50 turned out to be 73 nM.

The molecule `Cc1cc(Nc2nc(N(C)c3ccc(S(=O)(=O)C(C)(C)C)cc3)nc(-c3cnn(C)c3)c2C2CC2)n[nH]1` [Compound 82] had an IC50 of 65 nM.

The molecule `COc1c(Nc2cc(C)[nH]n2)nc(N(C)c2ccc(S(C)(=O)=O)cc2)nc1-c1cnn(C)c1` [Compound 83] came in with an IC50 of 190 nM.

For `COc1c(Nc2cc(C)[nH]n2)nc(N(c2ccc(S(C)(=O)=O)cc2F)C(C)C)nc1-c1cnn(C)c1` [Compound 84], 140 nM corresponded to half-maximal inhibition (IC50).

As for `CNC(=O)CN(c1nc(Nc2cc(C)[nH]n2)c(OC)c(-c2cnn(C)c2)n1)c1ccc(S(C)(=O)=O)cc1F` [Compound 85], the IC50 amounted to 9200 nM.
